Experimental data from patent US8552201B2, “5, 6-bisaryl-2-pyridine-carboxamide derivatives, preparation and application thereof in therapeutics as urotensin II receptor antagonists” (Sanofi, priority 2006, dated 2013).
Structures can show the parent of a compound that is named as a salt.

Experiments:
human GPR14 receptor = target: T1, human GPR14 receptor (Homo sapiens, UniProt Q9UKP6); test: FlipR test of intracellular calcium mobilization (CHO GPR14 cells, urotensin II 3 nM); assay type: cell-based; settings: CHOGPR14 cells, inhibition of urotensin II (3 nM final) induced Ca2+ increase, Fluo-4AM
T1 construct: expressed in transfected cells; host or cells: CHO cells (CHOGPR14)
T1 sequence (Q9UKP6 1-389): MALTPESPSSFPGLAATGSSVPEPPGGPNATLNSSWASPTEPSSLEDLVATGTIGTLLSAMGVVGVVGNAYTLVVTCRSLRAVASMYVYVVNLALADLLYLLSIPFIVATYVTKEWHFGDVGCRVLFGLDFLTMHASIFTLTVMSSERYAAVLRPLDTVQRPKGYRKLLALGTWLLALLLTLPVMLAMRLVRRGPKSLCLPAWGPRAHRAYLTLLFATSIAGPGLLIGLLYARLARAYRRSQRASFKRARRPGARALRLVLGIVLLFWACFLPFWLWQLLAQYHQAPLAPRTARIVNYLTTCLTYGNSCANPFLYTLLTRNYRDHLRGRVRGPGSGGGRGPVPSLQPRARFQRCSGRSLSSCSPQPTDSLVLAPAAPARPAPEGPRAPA
Excerpt: (§1) The compounds according to the invention have undergone pharmacological testing for determining the properties of the compounds of the invention, including in particular: • a test in vitro of intracellular calcium mobilization (FlipR test) employing urotensin II antagonists (the compounds of the present invention) of the human GPR14 receptor, • a function test of contraction of rat aorta rings, also employing urotensin II antagonists represented by the compounds of the present invention.
1. FlipR (Fluorometric Imaging Plate Reader) Protocol
The purpose is to measure the activation of the GPR14 receptor by human urotensin II.
GPR14 is a Gq-coupled receptor with 7 transmembrane domains. Its activation by a specific ligand causes an increase in Ca^2+ in the cell via the PLC (Phospholipase C), IP3 (Inositol-1,4,5-triphosphate) DAG (Diacylglycerol) pathway. The increase in Ca^2+ in the cell is measured by means of the Fluo4AM permeating probe (mono-excitation, mono-emission probe) which binds to free Ca^2+ and emits at 520 nm. The free probe is non-fluorescent in the absence of Ca^2+.
1) Seeding of the cells on D−1 (Day−1) or D−2
2) Incorporation/loading (D0) of the probe (1 h)
3) Addition of the products to the FlipR and measurement
4) Addition of the ligand to the FlipR and measurement in the presence of the products
5) Processing and exporting the data
The cells are cultivated in complete medium in Flask T225. For the experiments, the cells are transplanted in 200 μl of culture medium in 96-well (black, transparent-bottom) plates at a rate of 60 000 cells/well for use on D+1 or 40 000 cells/well for use on D+2.
The Fluo-4AM is prepared at 20 mM then aliquots are taken (50 μl) and stored at −20° C. away from the light. A solution of pluronic acid at 200 mg/ml in DMSO is also prepared (it has a shelf life of one week at room temperature away from the light).
The cells are charged with the Fluo-4AM+pluronic acid mixture (aliquot 50 μl+50 μl of pluronic acid) diluted to 1/100 in the measurement buffer.
After washing the wells with 150 μl of measurement buffer (cf. annex), the cells are then charged as follows: • distribution of 100 μl of measurement buffer in each well • addition of 10 μl of the Fluo-4AM+pluronic acid mixture diluted to 1/100.
The cells are incubated for 1 h at 37° C. away from the light, in an incubator in the presence of 5% CO2.
The cells are then washed 3 times with 150 μl of measurement buffer to remove the excess of the probe. A volume of 150 μl of buffer is added to each well at the end of washing.
After incubating the plates for 20 min at room temperature away from the light, they are placed in the FlipR for measurement of fluorescence.
The level of basic incorporation of the Fluo-4 is checked for each plate (sd<10%) before the first injection.
After stabilization of the basic signal, the GPR14 inhibiting compounds are injected by the FlipR under a volume of 50 μl from a dilution plate effected with Biomek 2000 in measurement buffer. […] Data recording is carried out continuously throughout the experiment.
For each plate, the basic fluorescence before injection of the compounds is standardized by the “spatial uniformity correction” function of the FlipR. The values of fluorescence measured just before injection of urotensin II (min) and those of the fluorescence measured at the peak of the effect of urotensin II (max) are exported under Excel. In each plate, a series of wells is treated with urotensin alone in the absence of inhibitor compound. The min and max fluorescence values for these wells are averaged for defining 100% effect of urotensin II. The percentage inhibition calculated for each concentration of inhibitor is calculated as follows: • for each well with Uro II (urotensin II)+inhibitor, calculation of the delta product value=max−min • for the well with Uro II alone, calculation of the value delta Uro II (average max−average min) […]

[1] = target: T2, urotensin II receptors (rat aorta rings) (Rattus norvegicus, UniProt P49684); test: Contraction of rat aorta rings induced by human urotensin II; settings: endothelium-denuded Sprague-Dawley rat aorta rings, antagonist added 30 min before urotensin II, single concentration
T2 construct: The aortas are removed, washed and, after removing the endothelium, are cut into 4 rings; from tissue; host or cells: rat thoracic aorta rings, endothelium removed (Sprague-Dawley)
T2 sequence (P49684 1-386): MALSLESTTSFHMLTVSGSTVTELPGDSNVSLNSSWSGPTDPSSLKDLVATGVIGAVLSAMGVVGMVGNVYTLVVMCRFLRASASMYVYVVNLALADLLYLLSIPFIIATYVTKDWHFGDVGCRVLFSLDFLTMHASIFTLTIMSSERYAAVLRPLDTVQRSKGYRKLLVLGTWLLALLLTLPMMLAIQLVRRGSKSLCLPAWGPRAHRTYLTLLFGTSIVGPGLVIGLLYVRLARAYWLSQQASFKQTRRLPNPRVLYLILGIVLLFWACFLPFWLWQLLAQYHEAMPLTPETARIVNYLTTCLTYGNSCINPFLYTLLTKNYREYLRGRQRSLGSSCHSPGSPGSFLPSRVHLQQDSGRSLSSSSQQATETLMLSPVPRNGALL
Excerpt: as §1
2. Contraction of Rat Aorta
Male Sprague-Dawley rats (400-500 g; C. River, France) are anaesthetized with 6% sodium pentobarbital (Ceva SantéAnimale) by intraperitoneal injection (0.4-0.5 ml), and then euthanized by exsanguination. The aortas are removed, washed and, after removing the endothelium, are cut into 4 rings of about 0.2-0.3 cm. Each fragment is placed in a container for isolated organs, containing 20 mL of Krebs solution with the following composition (mM): NaCl 118; KCl 4.7; MgCl2 1.2; CaCl2 2.6; NaHCO3 25; glucose 11.1; (pH=7.4).
The tissue, maintained at 37° and aerated with a stream of carbogen (95% O2-5% CO2), is connected to a Grass FT03 isometric sensor under a basic strain of 2 g, and to a Gould series 6600 amplifier for recording the variations in strain. Data acquisition is effected automatically on an HP Compaq PC using IOX software (version 2.2) from the company Emka.
After stabilization for 60 min, the viability of the preparation is tested by prestimulation with 60 mM of KCl. This contraction is repeated a second time and the strain that developed will serve as reference (100%) for standardizing the response to urotensin II.
The curve of concentration v. contractile response to urotensin II is then constructed cumulatively until a maximum response is obtained.
A single concentration-response curve is recorded owing to the desensitization effects induced by urotensin II.
The antagonists or the vehicle (DMSO 0.15% maximum) are added to the container 30 min before the agonist.
Human urotensin II is obtained from Bachem Ltd (UK) and is dissolved in 0.1% of BSA.
The responses are expressed as percentage of the maximum contraction observed with KCl. The results represent the mean+/−sem of the individual responses. N corresponds to the number of animals per batch.
Analysis of the sigmoid curves using the Everstat software (De Lean A, Munson P J, Rodbard D., Am J Physiol 1978; 235(2): E97-102.) permitted the EC50 (concentration producing 50% of the maximum response) and the Emax (maximum effect) to be determined.
To evaluate the potency of the antagonists based on a single concentration, the pKb were calculated according to the equation: pKb=−log [antagonist]M+log(concentration-ratio−1) (Furchgott R F, Blaschko H, Muscholl E, editors. Handbook of Exp Pharmacol, Catecholamines, Springer, Berlin Heidelberg N.Y.; 1972; 33:283-335) where concentration-ratio is the EC50 of the agonist in the presence of the antagonist divided by the EC50 of the agonist in the absence of the antagonist.
If several concentrations of antagonist are tested, the pA2 (±confidence limits) is calculated by the Schild plot method (Arunlakshana O and Schild H O, Br J Pharmacol, 1959; 14:48-58).

Row | SMILES | IC50 (human GPR14 receptor) | melting point | Kb [1]
1 | Cc1ccccc1-c1ccc(C(=O)NC2(C(=O)O)CCCCC2)nc1-c1ccc(Cl)c(OCCCN(C)C)c1.Cl [compound 34, 1-({[6-{4-Chloro-3-[3-(dimethylamino)propoxy]phenyl}-5-(2-methylphenyl)pyridin-2-yl]carbonyl}amino)cyclohexanecarboxylic acid hydrochloride] | 25 nM | 146 to 150 °C | 79.4 nM
2 | Cc1cccnc1-c1ccc(C(=O)NC2(C(=O)O)CCCCC2)nc1-c1ccc(Cl)c(OCCCN(C)C)c1 [compound 58] | 28 nM | – | 251 nM
3 | Cc1ccc(-c2ccc(C(=O)NC3(C(=O)O)CCCCC3)nc2-c2ccc(Cl)c(OCCCN(C)C)c2)c(C)c1 [compound 66, 1-({[6-{4-Chloro-3-[3-(dimethylamino)propoxy]phenyl}-5-(2,4-dimethylphenyl)pyridin-2-yl]carbonyl}amino)cyclohexanecarboxylic acid hydrochloride] | 4.2 nM | – | 200 nM
4 | Cc1ccccc1-c1ccc(C(=O)NC2(C(=O)O)C3CC4CC(C3)CC2C4)nc1-c1ccc(Cl)c(OCCCN(C)C)c1 (stereo not shown) [Compound No. 18, 2-({[6-{4-Chloro-3-[3-(dimethylamino)propoxy]phenyl}-5-(2-methylphenyl)pyridin-2-yl]carbonyl}amino)adamantane-2-carboxylic acid hydrochloride] | 19 nM | – | 316 nM
5 | Cc1ccccc1-c1ccc(C(=O)N[C@@H](CC(=O)O)C(C)C)nc1-c1ccc(Cl)c(OCCCN(C)C)c1 [compound 37] | 72 nM | – | 31.6 nM
6 | CN(C)CCCOc1cc(-c2nc(C(=O)NC3(C(=O)O)CCCCC3)ccc2-c2ncc(Cl)cc2Cl)ccc1Cl [compound 65, 1-{[(3,5-Dichloro-2′-{4-chloro-3-[3-(dimethylamino)propoxy]phenyl}-2,3′-bipyridin-6′-yl)carbonyl]amino}cyclohexanecarboxylic acid hydrochloride] | 32 nM | – | 316 nM
7 | Cc1ncccc1-c1ccc(C(=O)NC2(C(=O)O)CCCCC2)nc1-c1ccc(Cl)c(OCCCN(C)C)c1 [compound 61] | 9 nM | – | 79.4 nM
8 | CCc1ccccc1-c1ccc(C(=O)NC2(C(=O)O)CCCCC2)nc1-c1ccc(Cl)c(OCCCN(C)C)c1 [compound 67] | 13 nM | – | 200 nM
9 | Cc1ccccc1-c1ccc(C(=O)NC2(C(=O)O)CCCCCC2)nc1-c1ccc(Cl)c(OCCCN(C)C)c1 [compound 71] | 24 nM | – | 501 nM
10 | Cc1ccc(C)c(-c2ccc(C(=O)NC3(C(=O)O)CCCCC3)nc2-c2ccc(Cl)c(OCCCN(C)C)c2)c1 [compound 70] | 32 nM | – | 631 nM

Results, then the compound that gave them:

Row | IC50 (human GPR14 receptor) | melting point | Kb [1] | SMILES
11 | 21 nM | – | 251 nM | Cc1cc(C)n(-c2ccc(C(=O)NC3(C(=O)O)CCCCC3)nc2-c2ccc(Cl)c(OCCCN(C)C)c2)n1 [compound 75, 1-({[6-{4-Chloro-3-[3-(dimethylamino)propoxy]phenyl}-5-(3,5-dimethyl-1H-pyrazol-1-yl)pyridin-2-yl]carbonyl}amino)cyclohexanecarboxylic acid hydrochloride]
12 | 16 nM | – | 79.4 nM | Cc1ccc(C(C)C)cc1-c1ccc(C(=O)NC2(C(=O)O)CCCCC2)nc1-c1ccc(Cl)c(OCCCN(C)C)c1 [compound 120]
13 | 4.2 nM | – | 316 nM | Cc1ccc(-c2ncc(C(=O)NC3(C(=O)O)CCCCC3)nc2-c2ccc(Cl)c(OCCCN(C)C)c2)c(C)c1 [compound 123]
14 | 15 nM | – | 158 nM | Cc1ccccc1-c1nc(N)c(C(=O)NC2(C(=O)O)CCCCC2)nc1-c1ccc(Cl)c(OCCCN(C)C)c1 [compound 129, 1-({[3-amino-6-{4-chloro-3-[3-(dimethylamino)propoxy]phenyl}-5-(2-methylphenyl)pyrazin-2-yl]carbonyl}amino)cyclohexanecarboxylic acid hydrochloride]
15 | 31 nM | – | 158 nM | COc1ccc(-c2ccc(C(=O)NC3(C(=O)O)CCCCC3)nc2-c2ccc(Cl)c(OCCCN(C)C)c2)c(Cl)c1 [compound 79]
